Experimental data taken from patent publication US12564582B2 (Prilenia Neurotherapeutics Ltd., priority 2016, dated 2026).
Where two headings read alike, the source gives them in different places.

Assays:
L-DOPA-induced dystonia = tested on: L-DOPA-induced dystonia
Description: Data are median (FIG. 19A) with individual values (FIG. 19BB). N=8 for all treatment groups. */**/*** represents P<0.05, P<0.01 or P<0.001 cf. vehicle-treatment. 2-way RM ANOVA (FIG. 19A) with Holm-Sidak's test or Friedman test with Dunn's test (FIG. 19B).

[1] = tested on: patients with Huntington's disease
Method: The study also compared data from all patients to those obtained in HD subpopulations.
The primary efficacy variable and endpoint for this study was change from baseline in the UHDRS TMS (defined as the sum of all UHDRS motor domains ratings) at Week 26 or Week 52. The primary measure of motor impairment is the UHDRS motor assessment section, which was administered by a trained examiner. The first part of the motor assessment consisted of five TMS subscores, provided below. The sum total of all the 31 items is referred to as the Total Motor Score (TMS). The secondary efficacy variable and endpoint was change from baseline in the mPPT at Week 26 or Week 52. The TMS scale includes measurement of dystonia.
It is a research tool which has been developed to provide a uniform assessment of the clinical features and course of HD. The TMS component of UHDRS comprises 31 assessments from the 15 items of the UHDRS, with each assessment rated on a 5-point scale from 0 (normal) to 4 (maximally abnormal).
The change from baseline in UHDRS-TMS was analyzed using a Repeated Measures model (SAS® MIXED procedure with REPEATED sub-command). The model includes the following fixed effects: categorical week in study by treatment interaction, center, neuroleptic use or no use, and baseline UHDRS-TMS score. The unstructured covariance matrix for repeated observations within patients was used.

rat striatum = conditions: transcriptomic analysis (Geva 2016); cited from earlier work
[2] = tested on: patients with Huntington's disease; conditions: for Δ to placebo, change from baseline in Q-Motor: Tap-Speed-Inter-Onset-interval-MN-Hand: Week 52
Description: The patient places their hand on a hand rest with their index finger positioned above a force-transducer. Recordings start after practice runs. The patient is instructed to finger tap as fast as possible between 2 auditory cues. The beginning of a tap is defined as a rise of the force by 0.05 N above maximal baseline level. The tap ends when it drops to 0.05 N before the maximal baseline level is reached again. The duration and variability of tap durations (TD), inter onset intervals (IOI), inter peak intervals (IPI), and inter tap intervals (ITI) are the exploratory outcome measures for speeded tapping. In addition, variability of peak tapping forces (TF) is calculated as coefficient of variation, and the tapping frequency (Freq), i.e., the number of taps between the onsets of the first and the last tap divided by the time in between, is determined. Five trials of 10 seconds duration are performed with each hand.

[3] = tested on: human patients afflicted with dystonia; conditions: periodic (daily or twice daily) oral administration
[4] = tested on: patients with Huntington's disease; remark: listed apart in the source
Description: In the UHDRS, maximal dystonia was scored from 0 (absent) to 4 (marked/prolonged) on each of the following items: trunk, right upper extremity, left upper extremity, right lower extremity, and left lower extremity. Maximal dystonia is the sum of all scores.

neuroblastoma cell line = conditions: SIR-dependent manner (Geva 2016); cited from earlier work
[5] = tested on: patients with DYT1 and other primary genetic forms of dystonia; conditions: 45 mg b.i.d., 90 mg b.i.d.; 26 weeks
Description: The study population consists of those with DYT1 and other primary genetic forms of dystonia, as confirmed by genetic testing. The study's other inclusion criteria are patients with a BFMD score greater than 6, male or female patients, patients of any race or ethnicity, and patients with the ability to provide informed consent.
Burke-Fahn-Marsden Dystonia Rating Scale (BFMDRS) Rating Scale evaluates nine body parts (eyes, mouth, speech, swallowing, neck, trunk, right arm, right leg, left arm, and left leg) by rating the severity factor and provoking factors for each part on a 5 point scale of 0 (no dystonia) to 4 (indicating the presence of dystonia at rest). The dystonia scores of the eyes, mouth and neck are assigned a weighting factor of 0.5, while the other 6 parts are assigned a weighting factor of 1.0. The score of each part is obtained by multiplying the provoking factor by the severity factor and the weighting factor, and then summing the scores of each part. The maximum score possible is 120. A higher score indicates more severe dystonia. […]

[6] = 45 mg bid, Week 26, Stage 1 BL TFC 11-13
[7] = 45 mg bid, Week 52, Stage 1 BL TFC 11-13
[8] = 67.5 mg bid, Week 26, Stage 1 BL TFC 11-13
[9] = 67.5 mg bid, Week 52, Stage 1 BL TFC 11-13
[10] = 90 mg bid, Week 26, Stage 1 BL TFC 11-13
[11] = 90 mg bid, Week 52, Stage 1 BL TFC 11-13
[12] = 112.5 mg bid, Week 26, Stage 1 BL TFC 11-13
[13] = 112.5 mg bid, Week 52, Stage 1 BL TFC 11-13

CCCN1CCC(c2cccc(S(C)(=O)=O)c2)CC1 [pridopidine, 4-[3-(methylsulfonyl)phenyl]-1-propyl-piperidine]
levels of dystonia, significance cf. LDh-vehicle (L-DOPA-induced dystonia; 15 mg/kg, 1 h epoch 1): ns | levels of dystonia, significance cf. LDh-vehicle (L-DOPA-induced dystonia; 15 mg/kg, 1 h epoch 2): ns | levels of dystonia, significance cf. LDh-vehicle (L-DOPA-induced dystonia; 15 mg/kg, 1 h epoch 3): ns | levels of dystonia, significance cf. LDh-vehicle (L-DOPA-induced dystonia; 15 mg/kg, 1 h epoch 4): ns | levels of dystonia, significance cf. LDh-vehicle (L-DOPA-induced dystonia; 15 mg/kg, 1 h epoch 5): ns | levels of dystonia, significance cf. LDh-vehicle (L-DOPA-induced dystonia; 15 mg/kg, 1 h epoch 6): ns | levels of dystonia, significance cf. LDh-vehicle (L-DOPA-induced dystonia; 20 mg/kg, 1 h epoch 1): * (P<0.05) | levels of dystonia, significance cf. LDh-vehicle (L-DOPA-induced dystonia; 20 mg/kg, 1 h epoch 2): ns | levels of dystonia, significance cf. LDh-vehicle (L-DOPA-induced dystonia; 20 mg/kg, 1 h epoch 3): ns | levels of dystonia, significance cf. LDh-vehicle (L-DOPA-induced dystonia; 20 mg/kg, 1 h epoch 4): ns | levels of dystonia, significance cf. LDh-vehicle (L-DOPA-induced dystonia; 20 mg/kg, 1 h epoch 5): ns | levels of dystonia, significance cf. LDh-vehicle (L-DOPA-induced dystonia; 20 mg/kg, 1 h epoch 6): ns | median levels of dystonia (L-DOPA-induced dystonia; 20 mg/kg, first hour): between moderate and marked | levels of dystonia, significance cf. LDh-vehicle (L-DOPA-induced dystonia; 30 mg/kg, 1 h epoch 1): ** (P<0.01) | levels of dystonia, significance cf. LDh-vehicle (L-DOPA-induced dystonia; 30 mg/kg, 1 h epoch 2): *** (P<0.001) | levels of dystonia, significance cf. LDh-vehicle (L-DOPA-induced dystonia; 30 mg/kg, 1 h epoch 3): * (P<0.05) | levels of dystonia, significance cf. LDh-vehicle (L-DOPA-induced dystonia; 30 mg/kg, 1 h epoch 4): ns | levels of dystonia, significance cf. LDh-vehicle (L-DOPA-induced dystonia; 30 mg/kg, 1 h epoch 5): ns | levels of dystonia, significance cf. LDh-vehicle (L-DOPA-induced dystonia; 30 mg/kg, 1 h epoch 6): ns | median levels of dystonia (printed dyskinesia) (L-DOPA-induced dystonia; 30 mg/kg, cumulated over 0-2 h): below mild (non-disabling) | reduction of median levels of dystonia compared to LDh-vehicle (L-DOPA-induced dystonia; 30 mg/kg, cumulated over 0-2 h): 72% | median levels of dystonia (L-DOPA-induced dystonia; 30 mg/kg, first, second and third hours): mild to moderate | levels of L-DOPA-induced dystonia evoked by LDh (L-DOPA-induced dystonia; 15, 20, 30 mg/kg combined with LDh): significant and dose-dependent reduction | UHDRS-TMS change from baseline over time ([1]; 45 mg bid, HD1 patients, after 52 weeks): improvement in TMS score | Δ to placebo, change from baseline in UHDRS TMS ([1]; 45 mg bid, Week 26, ALL): 1.42 | Δ to placebo, change from baseline in UHDRS TMS [1, 6]: −4.47 | Δ to placebo, change from baseline in UHDRS TMS ([1]; 45 mg bid, Week 52, ALL): 0.59 | Wk 52 Δ to placebo, change from baseline in UHDRS TMS [1, 7]: −5.32 | TMS change from baseline vs historical placebo ([1]; 45 mg bid, historical placebo in HART and MermaiHD): significant | Δ to placebo, change from baseline in UHDRS TMS ([1]; 67.5 mg bid, Week 26, ALL): 1.71 | Δ to placebo, change from baseline in UHDRS TMS [1, 8]: −3 | Δ to placebo, change from baseline in UHDRS TMS ([1]; 67.5 mg bid, Week 52, ALL): 2.55 | Wk 52 Δ to placebo, change from baseline in UHDRS TMS [1, 9]: −0.84 | Δ to placebo, change from baseline in UHDRS TMS ([1]; 90 mg bid, Week 26, ALL): 0.67 | UHDRS TMS score at week 26 compared to baseline ([1]; 90 mg bid, Week 26, BL TFC 11-13, read from FIG. 8b): about −8 | Δ to placebo, change from baseline in UHDRS TMS [1, 10]: −6.15 | Δ to placebo, change from baseline in UHDRS TMS ([1]; 90 mg bid, Week 52, ALL): 1.78 | Wk 52 Δ to placebo, change from baseline in UHDRS TMS [1, 11]: −7.1 | Total Motor Score (TMS) change from baseline, treatment effect ([1]; 90 mg bid, compared with other doses): largest treatment effect | TMS change from baseline vs historical placebo ([1]; 90 mg bid, historical placebo in HART and MermaiHD): significant | Total Motor Score (TMS) change from baseline, difference vs historical placebo ([1]; 90 mg bid, week 26, historical placebo in HART and MermaiHD): ~6.5 TMS point | Δ to placebo, change from baseline in UHDRS TMS ([1]; 112.5 mg bid, Week 26, ALL): 2.1 | Δ to placebo, change from baseline in UHDRS TMS [1, 12]: −4.79 | Δ to placebo, change from baseline in UHDRS TMS ([1]; 112.5 mg bid, Week 52, ALL): 2.71 | Wk 52 Δ to placebo, change from baseline in UHDRS TMS [1, 13]: −0.92 | expression of the BDNF, dopamine receptor 1 (D1R), glucocorticoid receptor (GR) and Akt/PI3K pathways (rat striatum): activates expression | Δ to placebo, change from baseline in Q-Motor: Tap-Speed-Inter-Onset-interval-MN-Hand ([2]; 45 mg bid, FAS): -0.0402 s | Δ to placebo, change from baseline in Q-Motor: Tap-Speed-Inter-Onset-interval-MN-Hand ([2]; 45 mg bid, HD1 and HD2 patients): -0.0351 s | Δ to placebo, change from baseline in Q-Motor: Tap-Speed-Inter-Onset-interval-MN-Hand ([2]; 67.5 mg bid, FAS): 0.0152 s | Δ to placebo, change from baseline in Q-Motor: Tap-Speed-Inter-Onset-interval-MN-Hand ([2]; 67.5 mg bid, HD1 and HD2 patients): -0.0464 s | Q-Motor Tap Speed Inter Onset interval (IOI) ([2]; 90 mg bid): consistent and significant improvement from baseline | Q-Motor Tap-Speed-Frequency ([2]; 90 mg bid): consistent improvement from baseline | Δ to placebo, change from baseline in Q-Motor: Tap-Speed-Inter-Onset-interval-MN-Hand ([2]; 90 mg bid, FAS): -0.0064 s | Δ to placebo, change from baseline in Q-Motor: Tap-Speed-Inter-Onset-interval-MN-Hand ([2]; 90 mg bid, HD1 and HD2 patients): -0.0291 s | Δ to placebo, change from baseline in Q-Motor: Tap-Speed-Inter-Onset-interval-MN-Hand ([2]; 112.5 mg bid, FAS): -0.017 s | Δ to placebo, change from baseline in Q-Motor: Tap-Speed-Inter-Onset-interval-MN-Hand ([2]; 112.5 mg bid, HD1 and HD2 patients): -0.022 s | dystonia in afflicted patients [3]: effective to reduce dystonia | Δ to placebo, change from baseline in UHDRS TMS Dystonia ([4]; 45 mg bid, Week 26, ALL): −0.06 | Δ to placebo, change from baseline in UHDRS TMS Dystonia [4, 6]: −0.99 | Δ to placebo, change from baseline in UHDRS TMS Dystonia [4, 7]: −1.65 | Δ to placebo, change from baseline in UHDRS TMS Dystonia ([4]; 45 mg bid, Week 52, all pridopidine treated patients): −0.39 | Δ to placebo, change from baseline in UHDRS TMS Dystonia ([4]; 45 mg bid, week 26, BL TFC ≥9 and CAG Repeats <44 and BL TMS 1st 3 Qs): −1.53 | Δ to placebo, change from baseline in UHDRS TMS Dystonia ([4]; 45 mg bid, week 26, BL TFC≥9 AND CAG Repeats <44): −1.54 | Δ to placebo, change from baseline in UHDRS TMS Dystonia ([4]; 45 mg bid, week 26, CAG Repeats <44 AND BL TMS 1st 3 Qs): −1.04 | Δ to placebo, change from baseline in UHDRS TMS Dystonia ([4]; 67.5 mg bid, Week 26, ALL): −0.34 | Δ to placebo, change from baseline in UHDRS TMS Dystonia [4, 8]: −0.89 | Δ to placebo, change from baseline in UHDRS TMS Dystonia [4, 9]: −0.1 | Δ to placebo, change from baseline in UHDRS TMS Dystonia ([4]; 67.5 mg bid, Week 52, all pridopidine treated patients): −0.35 | Δ to placebo, change from baseline in UHDRS TMS Dystonia ([4]; 67.5 mg bid, week 26, BL TFC ≥9 and CAG Repeats <44 and BL TMS 1st 3 Qs): −1.6 | Δ to placebo, change from baseline in UHDRS TMS Dystonia ([4]; 67.5 mg bid, week 26, BL TFC≥9 AND CAG Repeats <44): −1.58 | Δ to placebo, change from baseline in UHDRS TMS Dystonia ([4]; 67.5 mg bid, week 26, CAG Repeats <44 AND BL TMS 1st 3 Qs): −1.15 | Δ to placebo, change from baseline in UHDRS TMS Dystonia ([4]; 90 mg bid, Week 26, ALL): −0.33 | Δ to placebo, change from baseline in UHDRS TMS Dystonia [4, 10]: −1.56 | Δ to placebo, change from baseline in UHDRS TMS Dystonia [4, 11]: −1.46 | Δ to placebo, change from baseline in UHDRS TMS Dystonia ([4]; 90 mg bid, Week 52, all pridopidine treated patients): −0.27 | Δ to placebo, change from baseline in UHDRS TMS Dystonia ([4]; 90 mg bid, week 26, BL TFC ≥9 and CAG Repeats <44 and BL TMS 1st 3 Qs): −1.64 | Δ to placebo, change from baseline in UHDRS TMS Dystonia ([4]; 90 mg bid, week 26, BL TFC≥9 AND CAG Repeats <44): −1.72 | Δ to placebo, change from baseline in UHDRS TMS Dystonia ([4]; 90 mg bid, week 26, CAG Repeats <44 AND BL TMS 1st 3 Qs): −1 | Δ to placebo, change from baseline in UHDRS TMS Dystonia ([4]; 112.5 mg bid, Week 26, ALL): −0.29 | Δ to placebo, change from baseline in UHDRS TMS Dystonia [4, 12]: −0.53 | Δ to placebo, change from baseline in UHDRS TMS Dystonia [4, 13]: −0.46 | Δ to placebo, change from baseline in UHDRS TMS Dystonia ([4]; 112.5 mg bid, Week 52, all pridopidine treated patients): −0.24 | Δ to placebo, change from baseline in UHDRS TMS Dystonia ([4]; 112.5 mg bid, week 26, BL TFC ≥9 and CAG Repeats <44 and BL TMS 1st 3 Qs): −1.29 | Δ to placebo, change from baseline in UHDRS TMS Dystonia ([4]; 112.5 mg bid, week 26, BL TFC≥9 AND CAG Repeats <44): −1.4 | Δ to placebo, change from baseline in UHDRS TMS Dystonia ([4]; 112.5 mg bid, week 26, CAG Repeats <44 AND BL TMS 1st 3 Qs): −0.62 | dystonia score, change from baseline ([4]; baseline total dystonia score≥4, Week 52, all treatment groups, greatest decreases for 45, 67.5 and 90 mg bid): directional clinical improvement | dystonia score, change from baseline ([4]; full analysis set, Week 26 or Week 52, all active treatment groups): no clinically meaningful changes from baseline | secretion of brain-derived neurotrophic factor (BDNF) (neuroblastoma cell line): enhances secretion | secondary outcomes (CGI, Patient Global Assessment, VAS pain, BFMDS, EQ-5D, SF-36 etc.) [5]: improve the secondary outcomes | severity of dystonia (BFMDRS or UDRS), primary endpoint [5]: improve the severity of dystonia
